Experimental data reported in patent publication US6753295B1, “Plant activator, process for producing the same, activation method, activity promoter and method for applying the promoter” (Hokkaido Green Kosan, Incorporated, priority 1999, dated 2004).

Columns and labels:
Type in all cases: cell-based
E. coli NIHJ JC-2 = experiment: MIC, agar plate dilution method; conditions: E.coliNIHJ JC-2
Protocol: (§1) 22 strains in total, that is, 1 strain of S. aureus 209P JC-1, 20 strains of 1G-stored, clinically separated Staphylococcus (10 strains each of MSSA and MRSA), and 1 strain of E. coli NIHJ JC-2 as the standard strain.
(§2) MW:168, methicilin (DMPPC, staphcililn for injection, Lot. No. FSB […], Banyu Pharmaceutical Co., Ltd.), vancomycin (VCM, Lot. No. 41H0457, 10750, SIGMA).
(§3) Mueller-Hinton agar (MIA, Difco) was used for measurement of antimicrobial properties, and Mueller Hinton broth (MHB, Difco) was used for pre-cultivation.
(§4) The minimum inhibitory concentration (MIC) of each chemical against the used strain was determined according to an agar plate dilution method in accordance with the standard methods of Japanese Society of Chemotherapy. The strain was sprayed onto MHA and cultured at 37° C. overnight, and the resultant colonies were cultured in MHB at 37° C. overnight, and its microbial liquid was diluted 100-fold (1000-fold dilution for E. coli) and used as inoculation liquid.

S. aureus 209P JC-1 = experiment: MIC, agar plate dilution method; conditions: S.aureu209P JC-1
Protocol: as §1, §2, §3, §4

[1] = test system: clinically separated Staphylococcus (MSSA and MRSA); experiment: MIC, agar plate dilution method
Protocol: as §1, §2, §3, §4

Erwinia sp. = experiment: paper disk bioassay of the purified product against bacteria; conditions: 1000, 500 and 250 ppm; 37° C., 18 hours
Protocol: (§5) An agar medium containing a test bacterium was placed in a Petri dish and fixed therein. A paper disk containing the sample was placed thereon and incubated at 37° C. for 18 hours, and formation of a circle of inhibited growth was confirmed.
(§6) The following 4 strains were used: Staphylococcus aureus 209P, Pseudomonas syringal, Xanthomonoas Campestris pv. citri, and Erwinia sp.
(§7) For pre-culture, a bouillon medium (DIFCO) was used, and after overnight cultivation, the cultivation medium was diluted at ×10^2 and mixed with 0.5% upper-layer medium. As the medium for measuring the bacterium, Mycin agar (Mikumi Kagaku) was used.
(§8) Upper layer−1.5% Mycin agar (Mikuni Kagaku)+0.5% Mycin agar mixed with the overnight cultivation (diluted at ×10^2) in 2% bouillon medium (DIFCO)
(§9) Lower layer−2.0% Mycin agar (Mikuni Kagaku)
(§10) A paper disk was impregnated with the isolated and purified product prepared at 1000 ppm, 500 ppm and 250 ppm respectively was air-dried, placed on the Petri dish and incubated at 37° C. for 18 hours, and whether a circle of inhibited growth was formed or not was observed.

Pseudomonas syringal = experiment: as above; conditions: 1000, 500 and 250 ppm; 37° C., 18 hours
Protocol: as §5, §6, §7, §8, §9, §10

[2] = test system: Staphylococcus aureus 209P; experiment: as above; conditions: 1000, 500 and 250 ppm; 37° C., 18 hours
Protocol: as §5, §6, §7, §8, §9, §10

[3] = test system: Xanthomonoas Campestris pv. citri; experiment: as above; conditions: 1000, 500 and 250 ppm; 37° C., 18 hours
Protocol: as §5, §6, §7, §8, §9, §10

`COc1cccc(OC)c1C(=O)N[C@@H]1C(=O)N2[C@@H]1SC(C)(C)[C@@H]2C(=O)O` [DMPP, methicilin] was tested, and the MIC (E. coli NIHJ JC-2) was 3.13 micro gram/ml, the MIC (S. aureus 209P JC-1) was 1.56 micro gram/ml and the MIC ([1]; MRSA TH948) was 1.56 micro gram/ml. It also gave an MIC ([1]; MRSA TH949) of 3.13 micro gram/ml, an MIC ([1]; MRSA TH950) of 3.13 micro gram/ml and an MIC ([1]; MRSA TH951) of 3.13 micro gram/ml. It also gave an MIC ([1]; MRSA TH952) of 1.56 micro gram/ml, an MIC ([1]; MRSA TH953) of 3.13 micro gram/ml and an MIC ([1]; MRSA TH954) of 3.13 micro gram/ml. It also gave an MIC ([1]; MRSA TH955) of 1.56 micro gram/ml, an MIC ([1]; MRSA TH956) of 3.13 micro gram/ml and an MIC ([1]; MRSA TH957) of 1.56 micro gram/ml. For the same compound, the MIC ([1]; MRSA TH972) was greater than 12.5 micro gram/ml, the MIC ([1]; MRSA TH973) was greater than 12.5 micro gram/ml and the MIC ([1]; MRSA TH974) was greater than 12.5 micro gram/ml. For the same compound, the MIC ([1]; MRSA TH975) was greater than 12.5 micro gram/ml, the MIC ([1]; MRSA TH976) was greater than 12.5 micro gram/ml and the MIC ([1]; MRSA TH1350) was 12.5 micro gram/ml. It also gave an MIC ([1]; MRSA TH1351) of 6.25 micro gram/ml, an MIC ([1]; MRSA TH1352) greater than 12.5 micro gram/ml and an MIC ([1]; MRSA TH1353) greater than 12.5 micro gram/ml. It also gave an MIC ([1]; MRSA TH1354) greater than 12.5 micro gram/ml.
With `O=C(O)/C=C/C1=CC(=O)CC1O` (centres unmarked) [MW168, 3(3-hydroxy-cyclopropene 5-one-2-yl)2-propenoic acid] the “circle of inhibited growth / activity against the bacteria” value (from here on “circle of inhibited growth / activity”) (Erwinia sp.) was “no or less activity”, the “circle of inhibited growth / activity” value (Pseudomonas syringal) was “no or less activity” and the “circle of inhibited growth / activity” value [2] was “no or less activity”. The “circle of inhibited growth / activity” value [3] was “no or less activity”, the MIC (E. coli NIHJ JC-2) was greater than 50 micro gram/ml and the MIC (S. aureus 209P JC-1) was greater than 50 micro gram/ml. For the same compound, the MIC ([1]; MRSA TH948) was greater than 50 micro gram/ml, the MIC ([1]; MRSA TH949) was greater than 50 micro gram/ml and the MIC ([1]; MRSA TH950) was greater than 50 micro gram/ml. It also gave an MIC ([1]; MRSA TH951) greater than 50 micro gram/ml, an MIC ([1]; MRSA TH952) greater than 50 micro gram/ml and an MIC ([1]; MRSA TH953) greater than 50 micro gram/ml. For the same compound, the MIC ([1]; MRSA TH954) was greater than 50 micro gram/ml, the MIC ([1]; MRSA TH955) was greater than 50 micro gram/ml and the MIC ([1]; MRSA TH956) was greater than 50 micro gram/ml. The MIC ([1]; MRSA TH957) was greater than 50 micro gram/ml, the MIC ([1]; MRSA TH972) was greater than 50 micro gram/ml and the MIC ([1]; MRSA TH973) was greater than 50 micro gram/ml. It also gave an MIC ([1]; MRSA TH974) greater than 50 micro gram/ml, an MIC ([1]; MRSA TH975) greater than 50 micro gram/ml and an MIC ([1]; MRSA TH976) greater than 50 micro gram/ml. It also gave an MIC ([1]; MRSA TH1350) greater than 50 micro gram/ml, an MIC ([1]; MRSA TH1351) greater than 50 micro gram/ml and an MIC ([1]; MRSA TH1352) greater than 50 micro gram/ml. For the same compound, the MIC ([1]; MRSA TH1353) was greater than 50 micro gram/ml, the MIC ([1]; MRSA TH1354) was greater than 50 micro gram/ml and the “antimicrobial properties against Staphylococcus” value ([1]; concentrations used 50˜0.10 micro gram/ml) was “no or less activity”.
In the case of `CN[C@H](CC(C)C)C(=O)N[C@H]1C(=O)N[C@@H](CC(N)=O)C(=O)N[C@H]2C(=O)N[C@H]3C(=O)N[C@H](C(=O)N[C@H](C(=O)O)c4cc(O)cc(O)c4-c4cc3ccc4O)[C@H](O)c3ccc(c(Cl)c3)Oc3cc2cc(c3O[C@@H]2O[C@H](CO)[C@@H](O)[C@H](O)[C@H]2O[C@H]2C[C@](C)(N)[C@H](O)[C@H](C)O2)Oc2ccc(cc2Cl)[C@H]1O` [VCM, vancomycin], the MIC (E. coli NIHJ JC-2) is reported as greater than 6.25 micro gram/ml, the MIC (S. aureus 209P JC-1) is reported as 0.78 micro gram/ml and the MIC ([1]; MRSA TH948) is reported as 0.78 micro gram/ml. For the same compound, the MIC ([1]; MRSA TH949) was 0.78 micro gram/ml, the MIC ([1]; MRSA TH950) was 0.78 micro gram/ml and the MIC ([1]; MRSA TH951) was 0.78 micro gram/ml. It also gave an MIC ([1]; MRSA TH952) of 0.78 micro gram/ml, an MIC ([1]; MRSA TH953) of 0.78 micro gram/ml and an MIC ([1]; MRSA TH954) of 0.78 micro gram/ml. For the same compound, the MIC ([1]; MRSA TH955) was 0.78 micro gram/ml, the MIC ([1]; MRSA TH956) was 0.78 micro gram/ml and the MIC ([1]; MRSA TH957) was 0.78 micro gram/ml. The MIC ([1]; MRSA TH972) was 0.78 micro gram/ml, the MIC ([1]; MRSA TH973) was 0.78 micro gram/ml and the MIC ([1]; MRSA TH974) was 0.78 micro gram/ml. The MIC ([1]; MRSA TH975) was 0.78 micro gram/ml, the MIC ([1]; MRSA TH976) was 0.78 micro gram/ml and the MIC ([1]; MRSA TH1350) was 0.78 micro gram/ml. The MIC ([1]; MRSA TH1351) was 0.78 micro gram/ml, the MIC ([1]; MRSA TH1352) was 0.78 micro gram/ml and the MIC ([1]; MRSA TH1353) was 0.78 micro gram/ml. It also gave an MIC ([1]; MRSA TH1354) of 0.78 micro gram/ml.
